Assay results as given in publication PMC11579541, “In vitro, in vivo, and in silico approaches for evaluating the preclinical DMPK profiles of ammoxetine, a novel chiral serotonin and norepinephrine reuptake inhibitor” (Frontiers in Pharmacology, 2024).
Read-outs that look alike come from different tables or passages of the source.

Tests used:
[1] = Tissue distribution study in rats; type: in vivo; settings: 20 mg/kg oral; for Tmax: read-out: time of peak concentration in tissue; for Kp: po, 20 mg/kg, read-out: AUC(0→t),tissue/AUC(0→t),blood
Description: A total of 24 rats were divided equally into four groups, with each group receiving a single oral gavage dose of 20 mg/kg of ammoxetine. Based on the rat PK analysis results for the 20 mg/kg dose, specific time points were selected for sampling, including before, at, and after the peak of ammoxetine plasma concentration (i.e., 0.25, 2, 6, and 24 h, respectively). At each designated time point after drug administration, the rats were euthanized, and approximately 1 mL of blood samples were collected into heparinized tubes. The heart, liver, spleen, lung, kidney, brain, intestine, stomach, testis, fat, and muscle tissues were rapidly removed after washing out the blood with ice-cold saline. The blood samples were then centrifuged at 6,000 r/min for 15 min to obtain plasma. The collected tissue samples were weighed and homogenized in distilled water to create a 10% homogenate. For further analysis, 100 μL of plasma or tissue homogenate samples were mixed with 300 μL of methanol and 100 μL of L-phencynonate (IS, 50 ng/mL). The mixture was vortexed for 1 min and then centrifuged at 13,800×g for 10 min. The resulting supernatants were used for LC-MS-MS analysis. Using the trapezoidal method, the tissue-to-blood AUC ratio ( AUC0→t,tissue/AUC0→t,blood ) was calculated based on the obtained AUC values. This ratio allowed for the comparison of differential tissue distribution of ammoxetine in rats.

CYP 1A2 = target: T1, CYP 1A2 (Homo sapiens, UniProt P05177); assay: CYP inhibition, cocktail-substrate method in HLM; type: in vitro ADME; set-up: 0.5 mg/mL HLM, 1 mmol/L NADPH, and a cocktail of 10 probe substrates for 9 CYP isoforms; tissue BD (Woburn, USA); host or cells: pooled human liver microsomes
T1 sequence (P05177 1-516): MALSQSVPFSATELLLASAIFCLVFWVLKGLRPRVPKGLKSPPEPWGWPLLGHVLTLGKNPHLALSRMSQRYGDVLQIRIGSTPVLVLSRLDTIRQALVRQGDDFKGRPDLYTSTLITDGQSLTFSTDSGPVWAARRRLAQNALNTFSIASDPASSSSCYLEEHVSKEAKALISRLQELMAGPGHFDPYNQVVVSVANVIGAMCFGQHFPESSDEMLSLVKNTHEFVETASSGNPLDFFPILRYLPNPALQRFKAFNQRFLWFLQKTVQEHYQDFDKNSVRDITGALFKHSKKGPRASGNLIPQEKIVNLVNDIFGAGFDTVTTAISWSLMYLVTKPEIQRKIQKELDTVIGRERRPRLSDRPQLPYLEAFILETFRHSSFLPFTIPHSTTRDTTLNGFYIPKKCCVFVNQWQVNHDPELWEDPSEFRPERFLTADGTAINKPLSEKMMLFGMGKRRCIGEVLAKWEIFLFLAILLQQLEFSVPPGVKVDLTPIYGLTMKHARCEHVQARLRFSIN
Description: (§1) To assess the CYP inhibition profiling of ammoxetine, a high-throughput assay based on the cocktail-substrate method was performed, as described in the literature ([Kim et al., 2005]; [Kozakai et al., 2014]). Microsomal incubations were conducted in triplicate for 30 min at 37°C in a reaction system (200 μL) consisting of […] potassium phosphate buffer (pH 7.4), 0.5 mg/mL HLM, 1 mmol/L NADPH, and a cocktail of 10 probe substrates for 9 CYP isoforms. The final concentration of each CYP-specific substrate was chosen to be close to the Michaelis-Menten constant (K m ) value of the respective substrate ([Kim et al., 2005]; [Lee et al., 2024]). For instance, phenacetin (CYP 1A2) was used at a concentration of 50 μmol/L, coumarin (CYP 2A6) at 5 μmol/L, bupropion (CYP 2B6) at 50 μmol/L, amodiaquine (CYP 2C8) at 5 μmol/L, tolbutamide (CYP 2C9) at 100 μmol/L, S-mephenytoin (CYP 2C19) at 100 μmol/L, dextromethorphan (CYP 2D6) at 5 μmol/L, chlorzoxazone (CYP 2E1) at 50 μmol/L, and testosterone and midazolam (CYP 3A4) at 50 μmol/L. Ammoxetine was evaluated at five concentrations: 0.1, 1, 10, 50, and 100 μmol/L. Additionally, a blank control without ammoxetine was included. The incubation was terminated by adding an equal volume of ice-cold acetonitrile/methanol (1:1, v/v) along with the IS, dexmedetomidine (1 ng/mL). After a 20-fold dilution, the mixture was centrifuged at 13,800×g for 10 min at 4°C. The supernatants were used to measure the levels of metabolites from the respective probe substrates using an LC-MS-MS method. The half-maximal inhibitory concentration (IC50) values were subsequently calculated.

CYP 2C19 = CYP 2C19 (Homo sapiens, UniProt P33261); assay: CYP inhibition, cocktail-substrate method in HLM; type: in vitro ADME; set-up: 0.5 mg/mL HLM, 1 mmol/L NADPH, and a cocktail of 10 probe substrates for 9 CYP isoforms; tissue BD (Woburn, USA); host or cells: pooled human liver microsomes; settings: probe S-mephenytoin
Description: as §1

CYP 2C9 = CYP 2C9 (Homo sapiens, UniProt P11712); assay: CYP inhibition, cocktail-substrate method in HLM; type: in vitro ADME; set-up: 0.5 mg/mL HLM, 1 mmol/L NADPH, and a cocktail of 10 probe substrates for 9 CYP isoforms; tissue BD (Woburn, USA); host or cells: pooled human liver microsomes; settings: probe tolbutamide
Description: as §1

CYP 2C9, sequence (P11712 whole entry, canonical isoform): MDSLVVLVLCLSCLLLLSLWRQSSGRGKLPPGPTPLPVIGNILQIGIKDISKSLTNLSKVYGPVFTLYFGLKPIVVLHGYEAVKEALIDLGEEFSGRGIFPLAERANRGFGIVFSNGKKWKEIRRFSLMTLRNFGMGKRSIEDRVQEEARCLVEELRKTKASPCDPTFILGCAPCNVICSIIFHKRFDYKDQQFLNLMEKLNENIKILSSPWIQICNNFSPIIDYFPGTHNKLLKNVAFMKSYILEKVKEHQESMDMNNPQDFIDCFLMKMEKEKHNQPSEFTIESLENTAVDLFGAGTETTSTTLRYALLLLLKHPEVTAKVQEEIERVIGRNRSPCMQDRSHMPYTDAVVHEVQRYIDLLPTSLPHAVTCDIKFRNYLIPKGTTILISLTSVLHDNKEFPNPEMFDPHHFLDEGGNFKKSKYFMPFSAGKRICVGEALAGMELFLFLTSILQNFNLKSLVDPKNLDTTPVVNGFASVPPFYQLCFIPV
CYP 2C19, sequence (P33261 whole entry, canonical isoform): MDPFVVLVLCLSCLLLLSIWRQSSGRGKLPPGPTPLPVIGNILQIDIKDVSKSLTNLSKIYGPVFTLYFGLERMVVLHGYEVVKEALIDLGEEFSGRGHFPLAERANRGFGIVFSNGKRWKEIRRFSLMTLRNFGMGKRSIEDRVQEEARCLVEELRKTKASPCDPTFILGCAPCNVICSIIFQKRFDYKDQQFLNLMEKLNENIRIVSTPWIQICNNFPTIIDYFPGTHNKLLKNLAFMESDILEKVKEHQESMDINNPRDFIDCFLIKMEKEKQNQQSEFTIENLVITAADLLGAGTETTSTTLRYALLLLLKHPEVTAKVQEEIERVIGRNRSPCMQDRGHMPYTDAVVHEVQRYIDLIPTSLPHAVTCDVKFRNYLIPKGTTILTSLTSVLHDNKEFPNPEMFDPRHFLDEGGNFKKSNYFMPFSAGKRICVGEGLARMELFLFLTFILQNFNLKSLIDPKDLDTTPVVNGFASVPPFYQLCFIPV

CNCC[C@H](Oc1cccc2c1OCO2)c1cccs1 [ammoxetine]
Plasma exposure as share of total systemic exposure (AUC0→t,blood/AUC0→t,total) [1]: approximately 0.186% | AUC(0→t) ([1]; brain): 60,541.26 ± 19,438.07 ng/g·h | AUC(0→t) ([1]; fat): 38,592.32 ± 24,498.69 ng/g·h | AUC(0→t) ([1]; heart): 44,743.11 ± 11,086.06 ng/g·h | AUC(0→t) ([1]; intestine): 190,710.5 ± 52,982.23 ng/g·h | AUC(0→t) ([1]; kidney): 98,000.01 ± 25,400.16 ng/g·h | AUC(0→t) ([1]; liver): 208,081.20 ± 64,872.68 ng/g·h | AUC(0→t) ([1]; lung): 393,670.80 ± 31,407.40 ng/g·h | AUC(0→t) ([1]; muscle): 24,154.50 ± 6,583.59 ng/g·h | AUC(0→t) ([1]; spleen): 117,673.30 ± 31,479.36 ng/g·h | AUC(0→t) ([1]; stomach): 118,279.40 ± 37,565.21 ng/g·h | AUC(0→t) ([1]; testis): 69,347.84 ± 13,459.91 ng/g·h | Tmax ([1]; rat, heart, spleen, lung, kidney, brain, fat and muscle): 2 h | Tmax ([1]; rat, testis): 6 h | Kp ([1]; rat, brain, brain): ~23.3 | Kp ([1]; rat, fat, fat): 14.2 ± 7.84 | Kp ([1]; rat, heart, heart): 17.1 ± 3.3 | Kp ([1]; rat, intestine, intestine): 75.6 ± 28.2 | Kp ([1]; rat, kidney, kidney): 37.7 ± 8.18 | Kp ([1]; rat, liver, liver): 81.4 ± 26.8 | Kp ([1]; rat, lung, lung): 155 ± 34.7 | Kp ([1]; rat, muscle, muscle): 9.31 ± 2.29 | AUC(0-t) ([1]; rat, plasma, blood): 2620 ng·h/mL | Kp ([1]; rat, spleen, spleen): 46 ± 14.2 | Kp ([1]; rat, stomach, stomach): 48.8 ± 27.6 | Kp ([1]; rat, testis, testis): 27.3 ± 8.12 | IC50 (CYP 1A2; HLM, probe phenacetin): > 100 µM | probe substrate levels, % of the original blank group (CYP 1A2; ammoxetine 100 μmol/L): ~72.30% | IC50 (CYP 2C19): > 100 µM | IC50 (CYP 2C9): > 100 µM
